The source of these data is US11608341B2, “Substituted tetrahydropyrazolo[3,4-d]pyrimidines and tetrahydropyrazolo[4,3-d]pyrimidines as C5A receptor modulators” (Idorsia Pharmaceuticals Ltd., priority 2018, dated 2023).

Structures are written as SMILES.

The target of the test is T1, C5AR1 (Homo sapiens, UniProt P21730).
T1 construct: host or cells: CHO-K1
T1 sequence (P21730 1-350): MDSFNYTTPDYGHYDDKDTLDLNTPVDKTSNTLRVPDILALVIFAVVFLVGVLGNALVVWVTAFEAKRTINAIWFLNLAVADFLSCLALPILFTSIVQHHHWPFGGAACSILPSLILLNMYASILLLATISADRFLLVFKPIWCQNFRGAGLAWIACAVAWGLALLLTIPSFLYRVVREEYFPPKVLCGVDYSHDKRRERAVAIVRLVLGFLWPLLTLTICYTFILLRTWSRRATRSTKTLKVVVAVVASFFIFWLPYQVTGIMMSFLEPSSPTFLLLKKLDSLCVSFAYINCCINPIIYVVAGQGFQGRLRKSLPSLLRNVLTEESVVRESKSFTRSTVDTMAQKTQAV
Kind of test: In vitro assay: antagonism of C5a-induced beta-arrestin recruitment (PathHunter) in CHO-K1 C5AR1 beta-arrestin cell line. It counts as cell-based. The following applies: antagonistic activity, 1-10 nM C5a agonist, geometric mean where several measurements, read-out: C5aR IC50. As for the experimental part: 5 μl Antagonist at 6-fold end concentration or DMSO control is added to assay medium and subsequently 5 μl 1-10 nM C5a agonist at 6 fold end concentration. Cells are centrifuged for 1 min at 1000 rpm and incubated for 1.5 hour in at 37° C. Plates are equilibrated at room temperature for several minutes before adding 12 μl/well Detection Reagent (PathHunter Detection Kit, DiscoverX, Cat #93-0001). Plates are centrifuged for 1 min at 1000 rpm and incubated for 45 minutes at RT before being measured on a Fluostar Optima, BMG Labtech. IC50 values are calculated from a serial dilution range of antagonist using inhouse software and given in nmol/l.
The calculated IC50 values may fluctuate depending on the daily cellular assay performance. Fluctuations of this kind are known to those skilled in the art. Average IC50 values from several measurements are given as geometric mean values.
For orientation: Arrestin recruitment assays detect the binding of arrestin to an activated receptor.
One may read the IC50 as the concentration that inhibits the measured activity by half. Consider `Cc1cccc(F)c1N1CCC(N2Cc3cn(C(C)CN)nc3N(Cc3ccccc3C(F)(F)F)C2=O)CC1` (centres unmarked) [Example 79], for which the IC50 is 676 nM.

With `Cc1cccc(F)c1N1CCC(N2Cc3nn(C4CC4)cc3N(Cc3ccccc3C(F)(F)F)C2=O)CC1` [Example 175], the IC50 was found to be 14 nM.

For the compound `Cc1cccc(F)c1N1CCC(N2Cc3cn(C[C@H]4CC(F)(F)CN4)nc3N(Cc3ccccc3C(F)(F)F)C2=O)CC1` [Example 111], the IC50 was 29 nM.

Consider `Cn1cc2c(n1)N(Cc1ccccc1C1CC1)C(=O)N(C1CCN(c3c(F)cccc3C(F)F)CC1)C2` [Example 308], for which the IC50 turned out to be 22 nM.

On to `CCn1cc2c(n1)CN(C1CCN(c3c(C)cccc3F)CC1)C(=O)N2Cc1ccccc1C(F)(F)F` [Example 182], for which the IC50 was found to be 30 nM.

As for `COC(=O)N1CC[C@@H]1Cn1cc2c(n1)N(Cc1ccccc1C(F)(F)F)C(=O)N(C1CCN(c3c(C)cccc3F)CC1)C2` [Example 133], the IC50 worked out at 22 nM.

With `Cc1cccc(F)c1N1CCC(N2Cc3cn(C[C@H]4CCN4C(=O)OC(C)C)nc3N(Cc3ccccc3C(F)(F)F)C2=O)CC1` [Example 135], the IC50 amounted to 17 nM.

On to `COc1nccc(C(F)F)c1N1CCC(N2C(=O)N(Cc3ccccc3C3CC3)c3nn(C)cc3C2C)CC1` (single isomer, unassigned) [Example 367], for which the IC50 is 286 nM.

As to `CCn1cc2c(n1)N(Cc1ccccc1C(F)(F)F)C(=O)N(C1CCN(c3c(C)cccc3F)CC1)C2` [Example 169], the IC50 was found to be 8 nM.

With `CCOC(=O)N1CC[C@@H]1Cn1cc2c(n1)N(Cc1ccccc1C(F)(F)F)C(=O)N(C1CCN(c3c(C)cccc3F)CC1)C2` [Example 134], the IC50 turned out to be 13 nM.

In the case of `Cc1cccc(F)c1N1CCC(N2Cc3cn(C4CN(C(=O)OC5COC5)C4)nc3N(Cc3ccccc3C(F)(F)F)C2=O)CC1` [Example 139], the IC50 amounted to 18 nM.

As to `Cc1cccc(F)c1N1CCC(N2Cc3cn(C)nc3N(Cc3c(F)cccc3C(F)(F)F)C2=O)CC1` [Example 61], the IC50 was determined as 16 nM.

Regarding `COC(=O)C(Cl)Cn1cc2c(n1)N(Cc1ccccc1C(F)(F)F)C(=O)N(C1CCN(c3c(C)cccc3F)CC1)C2` (centres unmarked) [Example 42], the IC50 turned out to be 24 nM.

For the compound `COCCN(C)CCn1cc2c(n1)N(Cc1ccccc1C(F)(F)F)C(=O)N(C1CCN(c3c(C)cccc3F)CC1)C2` [Example 74], the IC50 worked out at 26 nM.

For `CC(c1ccccc1C(F)(F)F)N1C(=O)N(C2CCN(c3c(F)cccc3C#N)CC2)Cc2cn(C)nc21` (single isomer, unassigned) [Example 289], the IC50 worked out at 55 nM.

Regarding `Cc1cccc(F)c1N1CCC(N2C(=O)N(Cc3ccccc3C(F)(F)F)c3cnn(CC(C)(F)F)c3C2C)CC1` (single isomer, unassigned) [Example 255], the IC50 was 87 nM.

`Cn1cc2c(n1)N(Cc1ccccc1C1CC1)C(=O)N(C1CCN(c3c(F)cccc3C3CC3)CC1)C2` [Example 307]: the IC50 was 30 nM.

`Cc1cccc(F)c1N1CCC(N2Cc3cn(C4COC4)nc3N(Cc3ccccc3C(F)(F)F)C2=O)CC1` [Example 77]: the half-maximal inhibitory concentration (IC50) was determined as 10 nM.

For the compound `Cc1cccc(F)c1N1CCC(N2Cc3cn(C4CC4)nc3N(Cc3ccccc3C(F)(F)F)C2=O)CC1` [Example 174], the IC50 was determined as 7 nM.

Take `Cc1cccc(F)c1N1CCC(N2Cc3nn(C)cc3N(Cc3ccccc3C(C)C)C2=O)CC1` [Example 260]: the IC50 turned out to be 40 nM.

On to `Cc1cccc(F)c1N1CCC(N2Cc3c[nH]nc3N(Cc3ncccc3C(F)(F)F)C2=O)CC1` [Example 193], for which the IC50 amounted to 14 nM.

`Cc1cccc(F)c1N1CCCC(N2Cc3cn(C)nc3N(Cc3ccccc3C(F)(F)F)C2=O)C1` (single isomer, unassigned) [Example 241]: the IC50 was found to be 112 nM.

Consider `Cc1ccc(C(F)(F)F)c(CN2C(=O)N(C3CCN(c4c(C)cccc4F)CC3)Cc3cn(C)nc32)n1` [Example 37], for which the IC50 was 53 nM.

For the compound `Cc1cccc(F)c1N1CCC(N2Cc3cn(CC(C)(F)F)nc3N(Cc3ncccc3C(F)(F)F)C2=O)CC1` [Example 194], the IC50 worked out at 5 nM.

With `Cc1cccc(F)c1N1CCC(N2Cc3cn(CCN(C)C)nc3N(Cc3ccccc3C(F)(F)F)C2=O)CC1` [Example 60], the IC50 was 56 nM.

As to `Cc1cccc(F)c1N1CCC(N2Cc3cn(C)nc3N(Cc3nc(F)ccc3C(F)(F)F)C2=O)CC1` [Example 36], the IC50 is 7 nM.

For `Cc1cccc(F)c1N1CCC(N2Cc3cn(C)nc3N(Cc3ccccc3C(F)(F)F)C2=O)C1` (centres unmarked) [Example 44], the IC50 amounted to 35 nM.

As for `Cc1cccc(F)c1N1CCC(N2Cc3cn(CC(C)(C)NS(=O)(=O)c4ccccc4[N+](=O)[O-])nc3N(Cc3ccccc3C(F)(F)F)C2=O)CC1` [Example 110], the IC50 came out at 28 nM.

With `COc1nccc(C)c1N1CCC(N2Cc3nn(C4CC4)cc3N(Cc3ccccc3C(F)(F)F)C2=O)CC1` [Example 223], the IC50 is 32 nM.

Take `CNC(=O)N1CC(n2cc3c(n2)N(Cc2ccccc2C(F)(F)F)C(=O)N(C2CCN(c4c(C)cccc4F)CC2)C3)C1` [Example 120]: the IC50 turned out to be 1350 nM.

`Cc1cccc(F)c1N1CCC(N2Cc3cn(C)nc3N(Cc3ccccc3OC(C)C)C2=O)CC1` [Example 251]: the IC50 stood at 9 nM.

In the case of `Cc1cccc(F)c1N1CCC(N2C(=O)N(Cc3ccccc3C3CC3)c3nn(C)cc3C2C)CC1` (single isomer, unassigned) [Example 317], the IC50 was 11 nM.

Consider `Cc1cccc(F)c1N1CCC(N2C(=O)N(Cc3ccccc3C(F)(F)F)c3cn(C)nc3C2C)CC1` (single isomer, unassigned) [Example 203], for which the IC50 amounted to 74 nM.

`Cn1cc2c(n1)N(Cc1ccccc1C(F)(F)F)C(=O)N(C1CCN(c3ccccc3C3CC3)CC1)C2` [Example 258]: the 50% inhibitory concentration (IC50) came out at 14 nM.

With `Cc1cccc(F)c1N1CCC(N2Cc3cn(CC4CCCN4C(=O)OC(C)(C)C)nc3N(Cc3ccccc3C(F)(F)F)C2=O)CC1` (centres unmarked) [Example 97], the IC50 was found to be 30 nM.

For `Cc1cccc(F)c1N1CCC(N2Cc3cn(CC4(F)COC4)nc3N(Cc3ccccc3C(F)(F)F)C2=O)CC1` [Example 164], the IC50 came out at 13 nM.

Turning to `Cc1cccc(F)c1N1CCC(N2Cc3cn(C)nc3N(Cc3ccccc3OCC3CC3)C2=O)CC1` [Example 248], the IC50 was found to be 16 nM.

On to `Cc1cccc(F)c1N1CCC(C)(N2Cc3cn(C)nc3N(Cc3ccccc3C(F)(F)F)C2=O)C1` (single isomer, unassigned) [Example 234], for which the IC50 was found to be 109 nM.

As to `Cc1cccc(F)c1N1CCC(N2Cc3cn(CC(C)(C)NS(=O)(=O)c4ccc(Cl)cc4)nc3N(Cc3ccccc3C(F)(F)F)C2=O)CC1` [Example 101], the IC50 was 22 nM.

For the compound `Cc1cccc(F)c1N1CCC(N2Cc3cn(C)nc3N(C(C)c3ccccc3C(F)(F)F)C2=O)CC1` (single isomer, unassigned) [Example 247], the IC50 was determined as 21 nM.

For the compound `COc1nccc(C)c1N1CCC(N2Cc3n[nH]cc3N(Cc3ccccc3C(F)(F)F)C2=O)CC1` [Example 218], the 50% inhibitory concentration (IC50) stood at 12 nM.

With `Cn1cc2c(n1)CN(C1CCN(c3c(F)cccc3C(F)(F)F)CC1)C(=O)N2Cc1ccccc1C(F)(F)F` [Example 271], the IC50 turned out to be 51 nM.

For `COc1nccc(Cl)c1N1CCC(N2C(=O)N(Cc3ccccc3C(F)(F)F)c3nn(C)cc3C2C)CC1` (single isomer, unassigned) [Example 376], the IC50 came to 5 nM.

As for `COc1nccc(C(F)(F)F)c1N1CCC(N2C(=O)N(Cc3ccccc3C3CC3)c3nn(C)cc3C2C)CC1` (single isomer, unassigned) [Example 374], the IC50 was determined as 8 nM.

On to `CC1c2cn(C3CCCCO3)nc2N(Cc2ccccc2C(F)(F)F)C(=O)N1C1CCN(c2c(F)cccc2C(F)F)CC1` (centres unmarked) [Example 341], for which the IC50 stood at 31 nM.

Turning to `Cc1cccc(F)c1N1CCC(N2C(=O)N(Cc3ccccc3C3CC3)c3nn(C4CC4)cc3C2C)CC1` (single isomer, unassigned) [Example 340], the IC50 was 67 nM.

Take `COc1nccc(Cl)c1N1CCC(N2C(=O)N(Cc3ccccc3C(F)(F)F)c3nn(C)cc3C2C)CC1` (single isomer, unassigned) [Example 377]: the IC50 turned out to be 552 nM.

Turning to `CC(c1ccccc1C(F)(F)F)N1C(=O)N(C2CCN(c3c(F)cccc3C#N)CC2)Cc2cn(C)nc21` (single isomer, unassigned) [Example 288], the IC50 worked out at 75 nM.

On to `CC1c2c[nH]nc2N(Cc2ccccc2C(F)(F)F)C(=O)N1C1CCN(c2c(F)cccc2C(F)F)CC1` (single isomer, unassigned) [Example 349], for which the IC50 was 918 nM.

With `Cc1cccc(F)c1N1CCC(N2Cc3cn(C)nc3N(C(C)c3ccccc3C(F)(F)F)C2=O)CC1` (single isomer, unassigned) [Example 246], the half-maximal inhibitory concentration (IC50) stood at 21 nM.

For the compound `COc1nccc(C(F)F)c1N1CCC(N2C(=O)N(Cc3ccccc3C(F)(F)F)c3n[nH]cc3C2C)CC1` (single isomer, unassigned) [Example 353], the IC50 is 997 nM.

For the compound `CCOc1ccccc1CN1C(=O)N(C2CCN(c3c(C)cccc3F)CC2)Cc2cn(C)nc21` [Example 252], the IC50 is 9 nM.

For `Cc1cccc(C)c1N1CCC(N2Cc3cn(C)nc3N(Cc3ccccc3C(F)(F)F)C2=O)CC1` [Example 47], the IC50 turned out to be 19 nM.
